The values that follow come from patent US20240294551A1 (AMGEN INC., priority 2022, published 2024).

Molecules are shown by their SMILES.

In assay [1] the target is GDP-bound KRAS protein (aa 1-169), containing both G12D and C118A amino acid substitutions (Homo sapiens (Human), UniProt P01116, C118A/G12D). The assay can be described thus: KRAS G12D Coupled Nucleotide Exchange Assay. Format: biochemical. Conditions: read-out: KRAS G12D Coupled Exchange IC50.
In assay [2] the target is His-tagged KRAS G12D protein (Homo sapiens (Human), UniProt P01116, G12D). In words: KRAS G12D TR-FRET Assay. Format: binding. Conditions: read-out: KRAS G12D Binding IC50. A digest of the protocol:
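Each incubation ran at room temperature: enzyme with compound for 30 minutes, peptide for one hour, and detection reagents (0.4 nM europium anti-6×His, 5 nM streptavidin-d2) for one hour more. Protein and peptide stocks were each diluted to 20 nM before addition.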
(In general: TR-FRET usually uses a lanthanide donor and a delayed reading to cut background.)

Sequence of His-tagged KRAS G12D protein (P01116 other isoform, or with tags, fused parts or gaps G12D): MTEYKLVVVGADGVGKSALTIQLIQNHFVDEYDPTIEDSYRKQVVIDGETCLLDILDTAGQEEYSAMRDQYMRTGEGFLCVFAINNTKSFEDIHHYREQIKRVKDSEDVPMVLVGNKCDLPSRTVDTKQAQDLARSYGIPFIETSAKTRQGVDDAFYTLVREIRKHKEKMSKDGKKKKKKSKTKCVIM
Sequence of GDP-bound KRAS protein (aa 1-169), containing both G12D and C118A amino acid substitutions (P01116 other isoform, or with tags, fused parts or gaps G12D/C118A): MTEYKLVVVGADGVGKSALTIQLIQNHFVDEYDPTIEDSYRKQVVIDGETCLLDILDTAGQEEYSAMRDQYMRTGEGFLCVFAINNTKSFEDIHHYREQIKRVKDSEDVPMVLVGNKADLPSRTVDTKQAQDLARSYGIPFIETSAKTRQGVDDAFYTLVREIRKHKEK

The term IC50 denotes the concentration that inhibits the measured activity by half. With `O=C1N[C@@H]2CN(C[C@@H]3C[C@@H]32)c2nc(OC[C@@]34CCCN3C[C@H](F)C4)nc3c(F)c(ncc23)-c2c(c(Cl)cc3[nH]ncc23)CCC[C@H]1F` [Example 172, (23R,26S,27S,29R)-18-chloro-23,32-difluoro-4-(((2R,7aS)-2-fluorotetrahydro-1H-pyrrolo[1,2-a]pyrrol-7a(5H)-yl)methoxy)-1,3,5,9,14,15,25-heptaazaheptacyclo[24.4.1.1~6,10~.0~2,7~.0~11,19~.0~12,16~.0~27,29~]dotriaconta-2,4,6,8,10(32),11,13,16,18-nonaen-24-one], the IC50 was determined as 1030 nM in assay [1] and 1770 nM in assay [2].

Turning to `O=C1N[C@H]2CN(C[C@H]3C[C@H]32)c2nc(OC[C@@]34CCCN3C[C@H](F)C4)nc3c(F)c(ncc23)-c2c(c(Cl)cc3[nH]ncc23)CCC[C@H]1F` [Example 173, (23R,26R,27R,29S)-18-chloro-23,32-difluoro-4-(((2R,7aS)-2-fluorotetrahydro-1H-pyrrolo[1,2-a]pyrrol-7a(5H)-yl)methoxy)-1,3,5,9,14,15,25-heptaazaheptacyclo[24.4.1.1~6,10~.0~2,7~.0~11,19~.0~12,16~.0~27,29~]dotriaconta-2,4,6,8,10(32),11,13,16,18-nonaen-24-one], the IC50 turned out to be 1110 nM in assay [1] and 1570 nM in assay [2].

For `O=C1OCCCc2c(Cl)cc3[nH]ncc3c2-c2ncc3c(nc(OC[C@@]45CCCN4C[C@H](F)C5)nc3c2F)N2CC[C@@H]3CCN1[C@@H]3C2` [Example 176, (28R,32S)-18-chloro-33-fluoro-4-(((2R,7aS)-2-fluorotetrahydro-1H-pyrrolo[1,2-a]pyrrol-7a(5H)-yl)methoxy)-23-oxa-1,3,5,9,14,15,25-heptaazaheptacyclo[23.5.2.1~6,10~.0~2,7~.0~11,19~.0~12,16~.0~28,32~]tritriaconta-2,4,6,8,10(33),11,13,16,18-nonaen-24-one], the IC50 was determined as 179 nM in assay [1] and 287 nM in assay [2].

For the molecule `CN1C(=O)OCCCc2c(Cl)cc3[nH]ncc3c2-c2ncc3c(nc(OC[C@@]45CCCN4C[C@H](F)C5)nc3c2F)N2CCOC[C@@H]1C2` [Example 178, (26S)-18-chloro-32-fluoro-4-(((2R,7aS)-2-fluorotetrahydro-1H-pyrrolo[1,2-a]pyrrol-7a(5H)-yl)methoxy)-25-methyl-23,28-dioxa-1,3,5,9,14,15,25-heptaazahexacyclo[24.4.1.1~6,10~.0~2,7~.0~11,19~.0~12,16~]dotriaconta-2,4,6,8,10(32),11,13,16,18-nonaen-24-one], the IC50 in assay [1] was determined as 44 nM; in assay [2], 79 nM.

For the molecule `CN1CCC[C@H]1COc1nc2c3cnc(c(F)c3n1)-c1c(c(Cl)cc3[nH]ncc13)CCCOC(=O)O[C@@]1(C)COCCN2C1` [Example 180, (26R)-18-chloro-32-fluoro-26-methyl-4-(((2S)-1-methyl-2-pyrrolidinyl)methoxy)-23,25,28-trioxa-1,3,5,9,14,15-hexaazahexacyclo[24.4.1.1~6,10~.0~2,7~.0~11,19~.0~12,16~]dotriaconta-2,4,6,8,10(32),11,13,16,18-nonaen-24-one], the values for the IC50 in assay [1] and in assay [2] were 689 nM and 1510 nM, respectively.

Turning to `Cc1cc2[nH]ncc2c2c1CCCOC(=O)O[C@@]1(C)COCCN(C1)c1nc(OC[C@@H]3CCCN3C)nc3c(F)c-2ncc13` [Example 182, (26R)-32-fluoro-18,26-dimethyl-4-(((2S)-1-methyl-2-pyrrolidinyl)methoxy)-23,25,28-trioxa-1,3,5,9,14,15-hexaazahexacyclo[24.4.1.1~6,10~.0~2,7~.0~11,19~.0~12,16~]dotriaconta-2,4,6,8,10(32),11,13,16,18-nonaen-24-one], the IC50 in assay [1] was found to be 3620 nM; in assay [2], 7570 nM.

For the molecule `O=C1OCCCc2c(Cl)cc3[nH]ncc3c2-c2c(F)cc3c(nc(OC[C@@]45CCCN4C[C@H](F)C5)nc3c2F)N2CCOC[C@H](C2)O1` [Example 188, m-(26S)-18-chloro-9,32-difluoro-4-(((2R,7aS)-2-fluorotetrahydro-1H-pyrrolo[1,2-a]pyrrol-7a(5H)-yl)methoxy)-23,25,28-trioxa-1,3,5,14,15-pentaazahexacyclo[24.4.1.1~6,10~.0~2,7~.0~11,19~.0~12,16~]dotriaconta-2,4,6,8,10(32),11,13,16,18-nonaen-24-one], the IC50 stood at 44 nM in assay [1] and 71 nM in assay [2].

In the case of `O=C1OCCCc2c(Cl)cc3[nH]ncc3c2-c2ncc3c(nc(O[C@H]4CCOC4)nc3c2F)N2CCOC[C@H](C2)O1` [Example 196, (26S)-18-chloro-32-fluoro-4-((3S)-tetrahydro-3-furanyloxy)-23,25,28-trioxa-1,3,5,9,14,15-hexaazahexacyclo[24.4.1.1~6,10~.0~2,7~.0~11,19~.0~12,16~]dotriaconta-2,4,6,8,10(32),11,13,16,18-nonaen-24-one], the IC50 in assay [1] worked out at 214 nM; in assay [2] it was 167 nM.

With `O=C1OCCCc2c(Cl)cc3[nH]ncc3c2-c2ncc3c(nc(O[C@@H]4CCOC4)nc3c2F)N2CCOC[C@H](C2)O1` [Example 197, (26S)-18-chloro-32-fluoro-4-((3R)-tetrahydro-3-furanyloxy)-23,25,28-trioxa-1,3,5,9,14,15-hexaazahexacyclo[24.4.1.1~6,10~.0~2,7~.0~11,19~.0~12,16~]dotriaconta-2,4,6,8,10(32),11,13,16,18-nonaen-24-one], the IC50 in assay [1] stood at 105 nM; in assay [2], 90 nM.

Take `Cc1nc2c3cnc(c(F)c3n1)-c1c(c(C)cc3[nH]ncc13)CCCOC(=O)O[C@@H]1COCCN2C1` [Example 210, (26S)-32-fluoro-4,18-dimethyl-23,25,28-trioxa-1,3,5,9,14,15-hexaazahexacyclo[24.4.1.1~6,10~.0~2,7~.0~11,19~.0~12,16~]dotriaconta-2,4,6,8,10(32),11,13,16,18-nonaen-24-one]: the IC50 in assay [1] came out at 431 nM; in assay [2] it was 435 nM.

Turning to `Cc1nc2c3cnc(c(F)c3n1)-c1c(c(C)cc3[nH]ncc13)[C@H]1C[C@H]1COC(=O)O[C@@H]1CCCN2C1` [Example 211, (11S,13R,18R)-31-fluoro-9,25-dimethyl-15,17-dioxa-5,6,22,24,26,30-hexaazaheptacyclo[25.3.1.1~18,22~.0~2,10~.0~3,7~.0~11,13~.0~23,28~]dotriaconta-1(31),2,4,7,9,23,25,27,29-nonaen-16-one], the IC50 in assay [1] was 268 nM; in assay [2], 617 nM.

Regarding `N#Cc1cc(Cl)c2c(c1)-c1ncc3c(nc(OC[C@@]45CCCN4C[C@H](F)C5)nc3c1F)N1CCOC[C@H](C1)OC(=O)OCCC2` [Example 216], the IC50 in assay [1] was 55 nM; in assay [2], 74 nM.

As to `Fc1ccc2cccc3c2c1CCOCC[C@@H]1CCCN(C1)c1nc(OC[C@@]24CCCN2C[C@H](F)C4)nc2c(F)c-3ncc12` [Example 223], the half-maximal inhibitory concentration (IC50) in assay [1] turned out to be 343 nM; in assay [2], 642 nM.

Turning to `Fc1c2ncc3c(nc(OC[C@@]45CCCN4C[C@H](F)C5)nc13)N1CCO[C@@H](CCOCCCc3c(Cl)cc4[nH]ncc4c3-2)C1` [Example 224], the IC50 in assay [1] was 39 nM; in assay [2], 63 nM.

Consider `O[C@H]1c2ncc(o2)CCc2c(Cl)cc3[nH]ncc3c2-c2ncc3c(nc(OC[C@@]45CCCN4C[C@H](F)C5)nc3c2F)N2CCC[C@@H]1C2` [Example 234], for which the IC50 was 9 nM in assay [1] and 77 nM in assay [2].

Consider `OC1CCCCc2c(Cl)cc3[nH]ncc3c2-c2ncc3c(nc(OC[C@@]45CCCN4C[C@H](F)C5)nc3c2F)N2CCOCC(C1)C2` (some centres unmarked) [Example 235], for which the IC50 in assay [1] amounted to 125 nM; in assay [2] it was 240 nM.
